Source: ChEMBL document CHEMBL1201861, “Genomics of Drug Sensitity in Cancer screening data, Wellcome Trust Sanger Institute”

Experiments:
Format in all cases: functional, cell-based
NBsusSR = assay: cells; settings: Homo sapiens;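 further: growth inhibition of the human cell line, read out with a cell viability assay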
Description: SANGER: Inhibition of human NBsusSR cell growth in a cell viability assay.

LU-135 = assay: cells; settings: Homo sapiens
Description: SANGER: Inhibition of human LU-135 cell growth in a cell viability assay.

SW 1116 = assay: cells; settings: Homo sapiens;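 further: growth inhibition of SW1116 cells, read out with a cell viability assay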
Description: SANGER: Inhibition of human SW1116 cell growth in a cell viability assay.

TGBC11TKB = assay: cells; settings: Homo sapiens;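 further: growth inhibition of human TGBC11TKB cells, measured by a cell viability assay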
Description: SANGER: Inhibition of human TGBC11TKB cell growth in a cell viability assay.

TI-73 = assay: cells; settings: Homo sapiens;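 further: cell viability assay measuring how much compounds suppress growth of the cultured cell line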
Description: SANGER: Inhibition of human TI-73 cell growth in a cell viability assay.

YH-13 = assay: cells; settings: Homo sapiens;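 further: cell viability readout of growth suppression in the human YH-13 cell line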
Description: SANGER: Inhibition of human YH-13 cell growth in a cell viability assay.

SW900 = assay: cells; settings: Homo sapiens;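 further: IC50 is the concentration that inhibits SW900 cell growth, measured by a cell viability assay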
Description: SANGER: Inhibition of human SW900 cell growth in a cell viability assay.

H-EMC-SS = assay: cells; settings: Homo sapiens
Description: SANGER: Inhibition of human H-EMC-SS cell growth in a cell viability assay.

H9 = assay: cells; settings: Homo sapiens
Description: SANGER: Inhibition of human H9 cell growth in a cell viability assay.

KNS-62 = assay: cells; settings: Homo sapiens;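 further: inhibition of cell growth, read out with a cell viability assay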
Description: SANGER: Inhibition of human KNS-62 cell growth in a cell viability assay.

BALL-1 = assay: cells; settings: Homo sapiens;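 further: growth inhibition of BALL-1 cells, read out with a cell viability assay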
Description: SANGER: Inhibition of human BALL-1 cell growth in a cell viability assay.

ZR-75-30 = assay: cells; settings: Homo sapiens;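 further: growth inhibition of ZR-75-30 cells, measured with a cell viability readout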
Description: SANGER: Inhibition of human ZR-75-30 cell growth in a cell viability assay.

RH-18 = assay: cells; settings: Homo sapiens, Rh18;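 further: growth inhibition of human RH-18 cells, read out with a cell viability assay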
Description: SANGER: Inhibition of human RH-18 cell growth in a cell viability assay.

BT-549 = assay: cells; settings: Homo sapiens
Description: SANGER: Inhibition of human BT-549 cell growth in a cell viability assay.

NCI-H2291 = assay: cells; settings: Homo sapiens
Description: SANGER: Inhibition of human NCI-H2291 cell growth in a cell viability assay.

NCI-H2029 = assay: cells; settings: Homo sapiens;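 further: Read-out is a viability assay on the cultured cells, and IC50 is the concentration that suppresses cell growth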
Description: SANGER: Inhibition of human NCI-H2029 cell growth in a cell viability assay.

NCI-H1666 = assay: cells; settings: Homo sapiens;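 further: growth inhibition of the cell line, read out with a cell viability assay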
Description: SANGER: Inhibition of human NCI-H1666 cell growth in a cell viability assay.

D-566MG = assay: cells; settings: Homo sapiens
OC-314 = assay: cells; settings: Homo sapiens
Description: SANGER: Inhibition of human OC-314 cell growth in a cell viability assay.

NCI-H1975 = assay: cells; settings: Homo sapiens
Description: SANGER: Inhibition of human NCI-H1975 cell growth in a cell viability assay.

NCI-H1048 = assay: cells; settings: Homo sapiens;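 further: growth inhibition of human NCI-H1048 cells, read out with a cell viability assay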
Description: SANGER: Inhibition of human NCI-H1048 cell growth in a cell viability assay.

EPLC-272H = assay: cells; settings: Homo sapiens
Description: SANGER: Inhibition of human EPLC-272H cell growth in a cell viability assay.

RL95-2 = assay: cells; settings: Homo sapiens;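 further: RL95-2 growth inhibition determined through a cell viability readout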
Description: SANGER: Inhibition of human RL95-2 cell growth in a cell viability assay.

EW-12 = assay: SANGER: Inhibition of human EW-12 cell growth in a cell viability assay.
KP-N-RT-BM-1 = assay: SANGER: Inhibition of human KP-N-RT-BM-1 cell growth in a cell viability assay.
CRO-AP2 = assay: SANGER: Inhibition of human CRO-AP2 cell growth in a cell viability assay.
NCI-H128 = assay: SANGER: Inhibition of human NCI-H128 cell growth in a cell viability assay.
SKM-1 = assay: SANGER: Inhibition of human SKM-1 cell growth in a cell viability assay.
CP67-MEL = assay: SANGER: Inhibition of human CP67-MEL cell growth in a cell viability assay.
Calu-1 = assay: SANGER: Inhibition of human Calu-1 cell growth in a cell viability assay.
MES-SA = assay: cells; settings: Homo sapiens;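 further: growth inhibition of human MES-SA cells, read out with a cell viability assay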
Description: SANGER: Inhibition of human MES-SA cell growth in a cell viability assay.

COLO 205 = assay: cells; settings: Homo sapiens
Description: SANGER: Inhibition of human COLO-205 cell growth in a cell viability assay.

ECC12 = assay: cells; settings: Homo sapiens
Description: SANGER: Inhibition of human ECC12 cell growth in a cell viability assay.

MFE-296 = assay: SANGER: Inhibition of human MFE-296 cell growth in a cell viability assay.
SNG-M = assay: cells; settings: Homo sapiens
Description: SANGER: Inhibition of human SNG-M cell growth in a cell viability assay.

MDA-MB-468 = assay: cells; settings: Homo sapiens
Description: SANGER: Inhibition of human MDA-MB-468 cell growth in a cell viability assay.

C-4-II = assay: SANGER: Inhibition of human C-4-II cell growth in a cell viability assay.
SNU-475 = assay: cells; settings: Homo sapiens
Description: SANGER: Inhibition of human SNU-475 cell growth in a cell viability assay.

DMS-53 = assay: cells; settings: Homo sapiens;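 further: cell viability assay measuring growth inhibition of human DMS-53 cells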
Description: SANGER: Inhibition of human DMS-53 cell growth in a cell viability assay.

NCI-H1734 = assay: cells; settings: Homo sapiens;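 further: growth inhibition of human NCI-H1734 cells, read out with a cell viability assay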
Description: SANGER: Inhibition of human NCI-H1734 cell growth in a cell viability assay.

PLC-PRF-5 = assay: cells; settings: Homo sapiens;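 further: growth inhibition of human PLC-PRF-5 cells, read out with a viability assay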
Description: SANGER: Inhibition of human PLC-PRF-5 cell growth in a cell viability assay.

Caov-3 cell line = assay: cells; settings: Homo sapiens;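 further: cell growth inhibition read out by a viability assay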
Description: SANGER: Inhibition of human Caov-3 cell growth in a cell viability assay.

HCC1143 = assay: cells; settings: Homo sapiens;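 further: growth inhibition of human HCC1143 cells, read out with a cell viability assay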
Description: SANGER: Inhibition of human HCC1143 cell growth in a cell viability assay.

NCI-H838 = assay: cells; settings: Homo sapiens;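 further: growth inhibition of human NCI-H838 cells, read out by a cell viability assay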
Description: SANGER: Inhibition of human NCI-H838 cell growth in a cell viability assay.

IPC-298 = assay: SANGER: Inhibition of human IPC-298 cell growth in a cell viability assay.
Caov-4 = assay: cells; settings: Homo sapiens
Description: SANGER: Inhibition of human Caov-4 cell growth in a cell viability assay.

RT-4 = assay: SANGER: Inhibition of human RT4 cell growth in a cell viability assay.
CCF-STTG1 = assay: cells; settings: Homo sapiens;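 further: growth inhibition of human CCF-STTG1 cells, determined with a cell viability read-out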
Description: SANGER: Inhibition of human CCF-STTG1 cell growth in a cell viability assay.

NCI-H2227 = assay: cells; settings: Homo sapiens;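 further: growth inhibition of the human cell line, read out with a cell viability assay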
Description: SANGER: Inhibition of human NCI-H2227 cell growth in a cell viability assay.

SK-CO-1 = assay: cells; settings: Homo sapiens;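 further: growth inhibition of SK-CO-1 cells, determined by a viability readout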
Description: SANGER: Inhibition of human SK-CO-1 cell growth in a cell viability assay.

EFE-184 = assay: cells; settings: Homo sapiens
Description: SANGER: Inhibition of human EFE-184 cell growth in a cell viability assay.

DV-90 = assay: cells; settings: Homo sapiens;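 further: Read-out is a viability assay, with IC50 reflecting the drop in DV-90 cell growth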
Description: SANGER: Inhibition of human DV-90 cell growth in a cell viability assay.

TT = assay: cells; settings: Homo sapiens
Description: SANGER: Inhibition of human TT cell growth in a cell viability assay.

EW-7 = assay: SANGER: Inhibition of human EW-7 cell growth in a cell viability assay.
NCI-H2107 = assay: SANGER: Inhibition of human NCI-H2107 cell growth in a cell viability assay.

Cn1cc(/C=C2\C(=O)Nc3cccnc32)c2ccccc21
IC50 (NBsusSR): > 2 µM | IC50 (LU-135): > 2 µM | IC50 (SW 1116): > 2 µM | IC50 (TGBC11TKB): > 2 µM | IC50 (TI-73): > 2 µM | IC50 (YH-13): > 2 µM | IC50 (SW900): > 2 µM | IC50 (H-EMC-SS): 0.765 µM | IC50 (H9): > 2 µM | IC50 (KNS-62): > 2 µM | IC50 (BALL-1): > 2 µM | IC50 (ZR-75-30): > 2 µM | IC50 (RH-18): > 2 µM | IC50 (BT-549): > 2 µM | IC50 (NCI-H2291): > 2 µM | IC50 (NCI-H2029): > 2 µM | IC50 (NCI-H1666): > 2 µM | IC50 (D-566MG): > 2 µM | IC50 (OC-314): > 2 µM | IC50 (NCI-H1975): > 2 µM | IC50 (NCI-H1048): > 2 µM | IC50 (EPLC-272H): > 2 µM

NC(=O)c1ncn([C@@H]2O[C@H](COP(=O)(O)O)[C@@H](O)[C@H]2O)c1N
IC50 (NBsusSR): 474 µM | IC50 (LU-135): > 2000 µM | IC50 (SW 1116): > 2000 µM | IC50 (TGBC11TKB): > 2000 µM | IC50 (TI-73): 724 µM | IC50 (YH-13): > 2000 µM | IC50 (SW900): > 2000 µM | IC50 (KNS-62): 996 µM | IC50 (BALL-1): > 2000 µM | IC50 (ZR-75-30): > 2000 µM | IC50 (RH-18): > 2000 µM | IC50 (BT-549): 807 µM | IC50 (NCI-H2291): > 2000 µM | IC50 (NCI-H1666): > 2000 µM | IC50 (D-566MG): > 2000 µM | IC50 (NCI-H1975): 1070 µM | IC50 (NCI-H1048): > 2000 µM | IC50 (EPLC-272H): 569 µM

Cc1[nH]c(/C=C2\C(=O)Nc3ccc(S(=O)(=O)Cc4c(Cl)cccc4Cl)cc32)c(C)c1C(=O)N1CCC[C@@H]1CN1CCCC1 [PHA-665752]
IC50 (RL95-2): > 2 µM | IC50 (EW-12): > 2 µM | IC50 (KP-N-RT-BM-1): > 2 µM | IC50 (CRO-AP2): > 2 µM | IC50 (NCI-H128): > 2 µM | IC50 (SKM-1): > 2 µM | IC50 (CP67-MEL): > 2 µM

C[C@]12O[C@H](C[C@]1(O)CO)n1c3ccccc3c3c4c(c5c6ccccc6n2c5c31)CNC4=O [LESTAURTINIB]
IC50 (NBsusSR): 0.162 µM | IC50 (LU-135): > 2 µM | IC50 (SW 1116): > 2 µM | IC50 (TGBC11TKB): 1.41 µM | IC50 (TI-73): 0.235 µM | IC50 (YH-13): 0.135 µM | IC50 (SW900): 1.41 µM | IC50 (H-EMC-SS): 0.425 µM | IC50 (H9): 0.0348 µM | IC50 (KNS-62): > 2 µM | IC50 (BALL-1): > 2 µM | IC50 (ZR-75-30): > 2 µM | IC50 (RH-18): > 2 µM | IC50 (BT-549): 0.163 µM | IC50 (NCI-H2291): 1.8 µM | IC50 (NCI-H2029): > 2 µM | IC50 (NCI-H1666): 1.89 µM | IC50 (D-566MG): 0.0965 µM | IC50 (OC-314): 1.84 µM | IC50 (NCI-H1975): 1.25 µM | IC50 (NCI-H1048): 0.141 µM | IC50 (EPLC-272H): 0.154 µM

CC(C)=CC[C@@H](O)C1=CC(=O)c2c(O)ccc(O)c2C1=O [SHIKONIN]
IC50 (Calu-1): 1.23 µM | IC50 (MES-SA): 0.0413 µM | IC50 (COLO 205): 0.538 µM | IC50 (ECC12): 9.65 µM | IC50 (MFE-296): 0.662 µM | IC50 (SNG-M): 0.272 µM | IC50 (MDA-MB-468): 0.967 µM | IC50 (C-4-II): 0.588 µM | IC50 (RL95-2): 0.72 µM | IC50 (SNU-475): 14.1 µM | IC50 (DMS-53): > 16 µM | IC50 (NCI-H1734): 6.9 µM | IC50 (PLC-PRF-5): 1.82 µM | IC50 (Caov-3 cell line): 0.767 µM | IC50 (HCC1143): 0.53 µM | IC50 (NCI-H838): > 16 µM | IC50 (IPC-298): > 16 µM | IC50 (Caov-4): 1.88 µM | IC50 (RT-4): 10.1 µM | IC50 (CCF-STTG1): 0.768 µM | IC50 (NCI-H2227): 4.89 µM | IC50 (SK-CO-1): 2.05 µM | IC50 (EFE-184): 0.544 µM | IC50 (DV-90): > 16 µM | IC50 (TT): 1.7 µM | IC50 (EW-7): 1.29 µM

CCn1c(-c2nonc2N)nc2cnc(Oc3cccc(NC(=O)c4ccc(OCCN5CCOCC5)cc4)c3)cc21 [GSK-269962A]
IC50 (ECC12): > 2.5 µM | IC50 (RL95-2): > 2.5 µM | IC50 (EW-12): > 2.5 µM | IC50 (CRO-AP2): 2.36 µM | IC50 (NCI-H128): > 2.5 µM | IC50 (NCI-H2227): > 2.5 µM | IC50 (SKM-1): > 2.5 µM | IC50 (NCI-H2107): > 2.5 µM
